Reference: ChEMBL document CHEMBL2439957, “Design and synthesis of novel pyrimidone analogues as HIV-1 integrase inhibitors” (Bioorg Med Chem Lett, 2013)

How the values were obtained:
[1] = biological target: T1, Human immunodeficiency virus type 1 integrase (Human immunodeficiency virus 1, UniProt Q7ZJM1); experiment: Inhibition of Human immunodeficiency virus 1 integrase 3'-processing activity after 30 mins by polyacrylamide gel electrophoresis
[2] = biological target: T1, Human immunodeficiency virus type 1 integrase; experiment: Inhibition of Human immunodeficiency virus 1 integrase strand transfer activity after 30 mins by polyacrylamide gel electrophoresis

T1 sequence (Q7ZJM1 whole entry): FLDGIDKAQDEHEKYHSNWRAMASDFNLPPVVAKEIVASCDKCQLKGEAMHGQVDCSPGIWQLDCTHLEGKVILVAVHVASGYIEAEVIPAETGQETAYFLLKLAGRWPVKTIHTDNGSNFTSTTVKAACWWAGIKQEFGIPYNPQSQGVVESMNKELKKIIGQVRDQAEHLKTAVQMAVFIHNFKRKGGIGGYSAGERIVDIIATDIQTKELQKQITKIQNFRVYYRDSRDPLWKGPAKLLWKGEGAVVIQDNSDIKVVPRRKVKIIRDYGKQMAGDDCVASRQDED

Compound | IC50 [1] | IC50 [2]
CC(C)(C)OC(=O)NCCCn1c(C(C)(C)C)nc(C(=O)NCc2ccc(F)cc2)c(O)c1=O | > 20 µM | > 20 µM
CC(C)(C)c1nc(C(=O)NCc2ccc(F)cc2)c(O)c(=O)n1CCCN | > 20 µM | > 20 µM
CC(C)(C)c1nc(C(=O)NCc2ccc(F)cc2)c(O)c(=O)n1CCCNC(=O)c1ccccc1 | > 20 µM | 13 µM
CCCC(=O)NCCCn1c(C(C)(C)C)nc(C(=O)NCc2ccc(F)cc2)c(O)c1=O | > 20 µM | 20 µM
CC(C)(C)c1nc(C(=O)NCc2ccc(F)cc2)c(O)c(=O)n1CCCNS(=O)(=O)C1CC1 [listing 1 of 2 here] | – | 20 µM
CC(C)(C)c1nc(C(=O)NCc2ccc(F)cc2)c(O)c(=O)n1CCCNC(=O)c1cccs1 | > 20 µM | 14 µM
CC(C)(C)c1nc(C(=O)NCc2ccc(F)cc2)c(O)c(=O)n1CCCNC(=O)Cc1cccs1 | > 20 µM | 20 µM
Cn1cnc(S(=O)(=O)NCCCn2c(C(C)(C)C)nc(C(=O)NCc3ccc(F)cc3)c(O)c2=O)c1 | > 20 µM | 12 µM
CC(C)(C)C(=O)NCCCn1c(C(C)(C)C)nc(C(=O)NCc2ccc(F)cc2)c(O)c1=O | > 20 µM | 20 µM
CC(C)(C)c1nc(C(=O)NCc2ccc(F)cc2)c(O)c(=O)n1CCCNS(=O)(=O)c1ccccc1 | > 20 µM | 20 µM
CC(C)(C)c1nc(C(=O)NCc2ccc(F)cc2)c(O)c(=O)n1CCCNS(=O)(=O)C1CC1 [listing 2 of 2 here] | > 20 µM | 9 µM

The next compounds have a lower IC50 [2] than those just listed; values first:

IC50 [1] | IC50 [2] | Compound
– | 3 µM | CC(C)(C)c1nc(C(=O)NCc2ccc(F)cc2)c(O)c(=O)n1CCCNC(=O)C1CC1 [listing 1 of 2 here]
> 20 µM | 2 µM | CC(=O)NCCCn1c(C(C)(C)C)nc(C(=O)NCc2ccc(F)cc2)c(O)c1=O
– | 6 µM | CCC(=O)NCCCn1c(C(C)(C)C)nc(C(=O)NCc2ccc(F)cc2)c(O)c1=O [listing 1 of 2 here]
> 20 µM | 7 µM | CCS(=O)(=O)NCCCn1c(C(C)(C)C)nc(C(=O)NCc2ccc(F)cc2)c(O)c1=O
> 20 µM | 3 µM | CC(C)(C)c1nc(C(=O)NCc2ccc(F)cc2)c(O)c(=O)n1CCCNC(=O)c1ccco1
> 20 µM | 8 µM | CC(=O)Nc1ccc(S(=O)(=O)NCCCn2c(C(C)(C)C)nc(C(=O)NCc3ccc(F)cc3)c(O)c2=O)cc1
> 20 µM | 5 µM | CC(C)(C)c1nc(C(=O)NCc2ccc(F)cc2)c(O)c(=O)n1CCCNC(=O)C1CC1 [listing 2 of 2 here]
> 20 µM | 4 µM | CCC(=O)NCCCn1c(C(C)(C)C)nc(C(=O)NCc2ccc(F)cc2)c(O)c1=O [listing 2 of 2 here]
> 20 µM | 2 µM | CC(C)(C)c1nc(O)c(O)c(C(=O)NCc2ccc(F)cc2)n1
